Patent US8389573B2, “Glycyrrhetinic acid derivatives” (Wellington Laboratories Inc., priority 2006, dated 2013)

How the values were obtained:
[1] = tested on: HT-29 colon cancer cells; assay: Cell proliferation assay in HT-29 cells; assay type: cell-based; settings: Homo sapiens, read-out: IC50, growth inhibition / cell proliferation
Method: Human colon carcinoma cell lines SW480 and HT29 were provided by Dr. Stan Hamilton, M.D. Anderson Cancer Center (Houston, Tex.); SW-480 and HT-29 cells were maintained in Dulbecco's modified Eagle's medium nutrient mixture with Ham's F-12 (DMEM/Ham's F-12; Sigma-Aldrich, St. Louis, Mo.) with phenol red supplemented with 0.22% sodium bicarbonate, 0.011% sodium pyruvate, and 5% fetal bovine serum and 10 ml/l 100× antibiotic antimycotic solution (Sigma-Aldrich). Cells were maintained at 37° C. in the presence of 5% CO2.
SW480 and HT 29 Cells (2×10^4) were plated in 12-well plates, and media were replaced the next day with DMEM/Ham's F-12 media containing 2.5% charcoal-stripped FBS and either vehicle (DMSO) or the indicated ligand and dissolved in DMSO. Fresh media and compounds were added every 48 h. Cells were counted at the indicated times using a Coulter Z1 cell counter. Each experiment was done in triplicate, and results are expressed as means±S.E. for each determination

[2] = target: T1, PPARγ (Homo sapiens, UniProt P37231); assay: PPRE3-Luc transfection and luciferase assay in SW480 cells; assay type: cell-based
T1 construct: endogenous in cells; host or cells: SW480 colon cancer cells
T1 sequence (P37231 1-505): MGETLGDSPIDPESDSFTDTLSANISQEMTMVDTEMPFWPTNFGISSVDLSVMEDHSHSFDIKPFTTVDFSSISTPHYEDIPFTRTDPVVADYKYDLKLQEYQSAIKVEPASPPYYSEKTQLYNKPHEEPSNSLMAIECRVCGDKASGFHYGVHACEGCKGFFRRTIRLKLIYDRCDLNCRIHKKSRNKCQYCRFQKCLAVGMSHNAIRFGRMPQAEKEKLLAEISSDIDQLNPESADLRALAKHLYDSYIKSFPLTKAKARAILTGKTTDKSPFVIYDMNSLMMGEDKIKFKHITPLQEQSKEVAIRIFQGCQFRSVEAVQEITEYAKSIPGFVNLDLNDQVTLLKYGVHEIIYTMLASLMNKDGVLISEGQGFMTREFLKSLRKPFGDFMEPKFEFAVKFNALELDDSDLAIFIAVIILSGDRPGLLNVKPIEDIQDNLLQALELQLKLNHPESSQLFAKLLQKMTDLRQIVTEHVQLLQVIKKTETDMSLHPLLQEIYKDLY
Method: The Gal4 reporter containing 5× Gal4 response elements (pGal4) was kindly provided by Dr. Marty Mayo (University of North Carolina, Chapel Hill, N.C.). Gal4 DBD-PPARγ construct (gPPARγ) was a gift of Dr. Jennifer L. Oberfield (GlaxoSmithKline Research and Development, Research Triangle Park, N.C.). PPRE3-luc construct contains three tandem PPREs with a minimal TATA sequence in pGL2.
Colon Cancer cell lines SW480 and HT29 (1×10^5 cells/well) were plated in 12-well plates in DMEM/Ham's F-12 media supplemented with 2.5% charcoal-stripped FBS. After 16 h, various amounts of DNA [i.e., Gal4Luc (0.4 μg), β-Gal (0.04 μg), Gal4PPAR and PPRE3-Luc (0.04 μg)] were transfected using LipofectAMINE™ reagent (Invitrogen) following the manufacturer's protocol. Five hours after transfection, the transfection mix was replaced with complete media containing either vehicle (DMSO) or the indicated ligand for 20 to 22 h. Cells were then lysed with 100 μl of 1× reporter lysis buffer, and 30 μl of cell extract was used for luciferase and […] assays. A LumiCount™ luminometer (PerkinElmer Life and Analytical Sciences) was used to quantitate luciferase and β-Gal activities, and the luciferase activities were normalized to β-Gal activity. Results are expressed as means±S.E. for at least three replicate determinations for each treatment group

`COC(=O)[C@@]1(C)CC[C@]2(C)CC[C@]3(C)C(=CC(=O)[C@@H]4[C@@]5(C)C=C(C#N)C(=O)C(C)(C)[C@@H]5CC[C@]43C)[C@@H]2C1` [β-CDODA-Me, Methyl 2-cyano-3,11-dioxo-18β-oleana-1,12-dien-30-oate] was tested, and the IC50 [1] was 0.2 to 0.5 µM, the “transactivation of PPRE3-Luc” value [2] was “induced transactivation” and the “PPRE3-Luc transactivation after cotreatment with PPARγ antagonists T007 and GW9662” value ([2]; 10 μM antagonist) was “inhibited”.
